In ChEMBL document CHEMBL4138292, “Metabolomics-Guided Discovery of Microginin Peptides from Cultures of the Cyanobacterium Microcystis aeruginosa” (J Nat Prod, 2018):

Target: Angiotensin-converting enzyme (Homo sapiens, UniProt P12821)
Assay: Inhibition of ACE (unknown origin) using hippuryl-L-histidyl-L-leucine as substrate preincubated with substrate for 30 mins followed by enzyme addition measured after 30 mins by LC/MS analysis

Sequence of Angiotensin-converting enzyme (P12821 whole entry): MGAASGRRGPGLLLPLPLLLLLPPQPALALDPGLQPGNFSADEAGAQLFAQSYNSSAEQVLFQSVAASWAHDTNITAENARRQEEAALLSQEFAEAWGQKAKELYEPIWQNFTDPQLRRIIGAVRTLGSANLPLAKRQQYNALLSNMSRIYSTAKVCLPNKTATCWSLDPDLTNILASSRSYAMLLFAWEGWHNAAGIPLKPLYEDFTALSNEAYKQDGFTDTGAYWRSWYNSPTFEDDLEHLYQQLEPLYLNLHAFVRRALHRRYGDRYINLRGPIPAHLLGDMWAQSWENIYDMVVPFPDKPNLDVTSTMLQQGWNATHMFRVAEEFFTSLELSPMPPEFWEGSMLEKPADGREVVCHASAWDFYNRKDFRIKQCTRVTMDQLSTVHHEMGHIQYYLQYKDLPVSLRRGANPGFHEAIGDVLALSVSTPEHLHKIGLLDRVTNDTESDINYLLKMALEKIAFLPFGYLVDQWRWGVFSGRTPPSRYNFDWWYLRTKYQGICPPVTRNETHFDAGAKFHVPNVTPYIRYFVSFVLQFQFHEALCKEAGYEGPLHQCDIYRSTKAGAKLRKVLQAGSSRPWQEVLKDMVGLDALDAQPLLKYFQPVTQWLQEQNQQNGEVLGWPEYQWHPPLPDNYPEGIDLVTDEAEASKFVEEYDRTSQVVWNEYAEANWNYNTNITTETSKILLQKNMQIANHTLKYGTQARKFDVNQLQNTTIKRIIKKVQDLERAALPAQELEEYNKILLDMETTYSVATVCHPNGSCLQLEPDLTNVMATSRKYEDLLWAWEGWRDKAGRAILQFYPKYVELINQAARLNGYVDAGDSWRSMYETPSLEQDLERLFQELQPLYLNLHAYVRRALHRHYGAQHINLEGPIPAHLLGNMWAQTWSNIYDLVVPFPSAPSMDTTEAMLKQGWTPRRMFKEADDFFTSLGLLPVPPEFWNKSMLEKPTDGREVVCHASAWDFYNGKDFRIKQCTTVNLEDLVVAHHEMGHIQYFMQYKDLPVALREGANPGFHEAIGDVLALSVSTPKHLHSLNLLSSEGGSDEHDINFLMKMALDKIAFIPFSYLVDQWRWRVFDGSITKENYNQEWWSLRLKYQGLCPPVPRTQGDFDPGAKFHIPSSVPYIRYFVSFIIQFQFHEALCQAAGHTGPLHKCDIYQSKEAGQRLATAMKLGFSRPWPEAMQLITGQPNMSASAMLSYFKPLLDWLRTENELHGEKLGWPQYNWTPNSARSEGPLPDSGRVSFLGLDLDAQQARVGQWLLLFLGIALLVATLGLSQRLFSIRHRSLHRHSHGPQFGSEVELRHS

IC50 [µM]	Structure (SMILES)
31	CCCCCCC[C@H](N)[C@H](O)C(=O)N(C)[C@@H](CC[S+](C)[O-])C(=O)N[C@@H](Cc1ccc(O)cc1)C(=O)O (stereo partly drawn)
460	CCCCCCC[C@H](N)[C@H](O)C(=O)N[C@@H](C)C(=O)N[C@H](C(=O)O)C(C)C
14	O=C(O)CN(CCN(CC(=O)O)CC(=O)O)CC(=O)O [EDETIC ACID]
